Assay results taken from ChEMBL document CHEMBL5518236, “Discovery of Clinical Candidate AZD5462, a Selective Oral Allosteric RXFP1 Agonist for Treatment of Heart Failure” (J Med Chem, 2024).

Key:
[1] = Octanol/water partition coefficient, logD of the compound at pH 7.4 by shake flask method; assay type: physicochemical
[2] = Protein binding in rat plasma assessed as fraction unbound at 5 uM measured after 18 hrs by LC-MS/MS analysis; assay type: ADME, cell-free; settings: read-out: PPB
[3] = Metabolic stability in human hepatocytes assessed as intrinsic clearance measured per 10^6 viable cells/ml at 1 uM measured upto 120 mins by LC-MS/MS analysis; assay type: ADME, cell-based, Hepatocyte; settings: read-out: CLH
[4] = Metabolic stability in human hepatocytes assessed as unbound intrinsic clearance measured per 10^6 viable cells/ml at 1 uM measured upto 120 mins by LC-MS/MS analysis; assay type: ADME, cell-based, Hepatocyte; settings: 2 h
[5] = Metabolic stability in human liver microsomes assessed as intrinsic clearance at 1 uM measured upto 30 mins by LC-MS/MS analysis; assay type: ADME, Microsome; settings: read-out: CLH
[6] = Metabolic stability in human liver microsomes assessed as unbound intrinsic clearance at 1 uM measured upto 30 mins by LC-MS/MS analysis; assay type: ADME, Microsome; settings: 0.5 h
[7] = biological target: T1, Relaxin receptor 1 (Rattus norvegicus, UniProt Q6R6I6); experiment: Agonist activity at rat RXFP1 expressed in CHO-K1 cells assessed as increase in cAMP level measured after 2 hrs by HTRF cAMP assay; assay type: functional, cell-based
T1 sequence (Q6R6I6 whole entry): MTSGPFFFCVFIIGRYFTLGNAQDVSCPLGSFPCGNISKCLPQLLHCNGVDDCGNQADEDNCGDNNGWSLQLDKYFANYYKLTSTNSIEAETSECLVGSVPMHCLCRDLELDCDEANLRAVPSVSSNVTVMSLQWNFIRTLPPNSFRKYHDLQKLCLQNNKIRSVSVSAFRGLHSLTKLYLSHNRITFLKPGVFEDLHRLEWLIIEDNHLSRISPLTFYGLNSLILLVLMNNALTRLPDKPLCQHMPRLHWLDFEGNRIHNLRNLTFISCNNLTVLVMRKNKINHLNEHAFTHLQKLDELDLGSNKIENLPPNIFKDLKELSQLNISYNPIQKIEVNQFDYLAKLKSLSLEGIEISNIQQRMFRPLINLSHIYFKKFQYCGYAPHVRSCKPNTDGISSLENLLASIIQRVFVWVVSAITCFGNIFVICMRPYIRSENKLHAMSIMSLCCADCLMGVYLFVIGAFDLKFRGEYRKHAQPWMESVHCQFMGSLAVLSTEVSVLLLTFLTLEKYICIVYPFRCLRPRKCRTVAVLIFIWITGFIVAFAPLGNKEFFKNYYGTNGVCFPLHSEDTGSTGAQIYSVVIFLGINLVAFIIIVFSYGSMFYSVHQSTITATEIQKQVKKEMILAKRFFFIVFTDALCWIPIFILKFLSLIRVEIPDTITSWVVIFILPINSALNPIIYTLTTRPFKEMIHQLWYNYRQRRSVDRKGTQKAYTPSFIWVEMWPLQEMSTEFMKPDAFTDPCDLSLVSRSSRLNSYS

[8] = Metabolic stability in rat hepatocytes assessed as unbound intrinsic clearance measured per 10^6 viable cells/ml at 1 uM measured upto 120 mins by LC-MS/MS analysis; assay type: ADME, cell-based, Hepatocyte; settings: 2 h
[9] = Volume of distribution at steady state in Han Wistar rat at 0.90 micromol/kg, iv by LC-MS/MS analysis; assay type: ADME, organism-based; settings: in vivo, dose 0.9 µmol/kg, read-out: Vdss
[10] = Clearance in Han Wistar rat at 0.90 micromol/kg, iv by LC-MS/MS analysis; assay type: ADME, organism-based; settings: in vivo, dose 0.9 µmol/kg
[11] = Half life in Han Wistar rat at 0.90 micromol/kg, iv by LC-MS/MS analysis; assay type: ADME, organism-based; settings: in vivo, dose 0.9 µmol/kg
[12] = Oral bioavailability in Han Wistar rat at 1.8 micromol/kg by LC-MS/MS analysis; assay type: ADME, organism-based; settings: in vivo, 1.8 µmol/kg
[13] = Volume of distribution at steady state in Han Wistar rat at 0.93 micromol/kg, iv by LC-MS/MS analysis; assay type: ADME, organism-based; settings: in vivo, dose 0.93 µmol/kg, read-out: Vdss
[14] = Clearance in Han Wistar rat at 0.93 micromol/kg, iv by LC-MS/MS analysis; assay type: ADME, organism-based; settings: in vivo, dose 0.93 µmol/kg
[15] = Half life in Han Wistar rat at 0.93 micromol/kg, iv by LC-MS/MS analysis; assay type: ADME, organism-based; settings: in vivo, dose 0.93 µmol/kg
[16] = Oral bioavailability in Han Wistar rat at 9.3 micromol/kg by LC-MS/MS analysis; assay type: ADME, organism-based; settings: in vivo, 9.3 µmol/kg
[17] = biological target: T2, Relaxin receptor 1 (Mus musculus, UniProt Q6R6I7)
T2 sequence (Q6R6I7 whole entry): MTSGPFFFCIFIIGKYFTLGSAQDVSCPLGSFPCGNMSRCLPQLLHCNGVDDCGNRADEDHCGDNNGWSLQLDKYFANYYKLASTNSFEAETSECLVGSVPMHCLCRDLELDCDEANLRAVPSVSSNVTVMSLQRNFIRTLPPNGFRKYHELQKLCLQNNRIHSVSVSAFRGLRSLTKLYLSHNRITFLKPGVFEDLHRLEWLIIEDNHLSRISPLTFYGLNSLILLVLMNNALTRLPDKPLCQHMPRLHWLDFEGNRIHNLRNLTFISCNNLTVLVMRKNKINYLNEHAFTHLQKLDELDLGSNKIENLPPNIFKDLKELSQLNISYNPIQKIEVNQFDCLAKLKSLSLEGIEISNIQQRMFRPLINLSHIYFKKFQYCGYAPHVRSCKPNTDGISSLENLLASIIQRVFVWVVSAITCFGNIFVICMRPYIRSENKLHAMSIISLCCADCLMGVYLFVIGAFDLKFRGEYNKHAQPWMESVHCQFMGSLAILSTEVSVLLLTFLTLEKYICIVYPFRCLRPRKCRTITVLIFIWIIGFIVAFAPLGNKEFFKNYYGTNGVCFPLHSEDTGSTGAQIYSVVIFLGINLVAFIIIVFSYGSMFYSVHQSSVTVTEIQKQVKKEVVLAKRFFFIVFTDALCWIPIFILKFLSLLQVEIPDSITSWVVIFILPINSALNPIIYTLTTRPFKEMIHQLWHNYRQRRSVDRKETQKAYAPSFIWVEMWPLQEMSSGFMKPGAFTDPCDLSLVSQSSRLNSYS
Description: Agonist activity at mouse RXFP1 expressed in CHO-K1 cells assessed as increase in cAMP level measured after 2 hrs by HTRF cAMP assay

[18] = Apparent permeability across apical to basolateral side in human Caco-2 cells at pH 7.4 by LC-MS/MS analysis; assay type: ADME, cell-based; settings: Caco-2, pH 7.4
[19] = Efflux ratio of apparent permeability from basolateral side to apical side over apical side to basolateral side in human Caco-2 cells at pH 7.4 by LC-MS/MS analysis; settings: Caco-2, pH 7.4
[20] = biological target: T3, Relaxin receptor 1 (Homo sapiens, UniProt Q9HBX9)
T3 sequence (Q9HBX9 whole entry): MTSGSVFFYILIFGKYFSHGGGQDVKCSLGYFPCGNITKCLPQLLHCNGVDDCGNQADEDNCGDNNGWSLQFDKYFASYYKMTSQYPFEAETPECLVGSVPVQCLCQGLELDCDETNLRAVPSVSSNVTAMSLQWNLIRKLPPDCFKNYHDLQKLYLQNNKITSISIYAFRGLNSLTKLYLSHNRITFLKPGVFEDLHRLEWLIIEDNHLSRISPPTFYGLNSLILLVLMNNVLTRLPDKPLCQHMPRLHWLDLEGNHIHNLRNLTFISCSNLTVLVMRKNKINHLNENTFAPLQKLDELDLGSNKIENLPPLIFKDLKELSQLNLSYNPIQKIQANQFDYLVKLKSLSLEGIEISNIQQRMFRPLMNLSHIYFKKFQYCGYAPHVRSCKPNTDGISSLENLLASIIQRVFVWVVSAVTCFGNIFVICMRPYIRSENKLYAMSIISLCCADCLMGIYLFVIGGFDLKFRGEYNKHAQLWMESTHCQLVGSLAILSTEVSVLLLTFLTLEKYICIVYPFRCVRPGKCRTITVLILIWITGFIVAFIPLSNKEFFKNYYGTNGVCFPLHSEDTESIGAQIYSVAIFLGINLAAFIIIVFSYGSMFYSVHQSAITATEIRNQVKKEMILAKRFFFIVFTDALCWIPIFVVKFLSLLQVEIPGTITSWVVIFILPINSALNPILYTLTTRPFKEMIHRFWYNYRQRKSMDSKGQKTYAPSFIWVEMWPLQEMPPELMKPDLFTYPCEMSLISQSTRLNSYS
Description: Agonist activity at human RXFP1 expressed in CHO cells assessed as increase in cAMP level measured after 2 hrs by HTRF cAMP assay

[21] = Protein binding in human plasma assessed as fraction unbound at 5 uM measured after 18 hrs by LC-MS/MS analysis; assay type: ADME, cell-free; settings: read-out: PPB
[22] = biological target: T3, Relaxin receptor 1; experiment: Agonist activity at human RXFP1 expressed in HEK293 cells assessed as ERK phosphorylation measured after 24 hrs by HTRF assay
[23] = biological target: T3, Relaxin receptor 1; experiment: Agonist activity at human RXFP1 expressed in CHO-K1 cells assessed as dynamic mass redistribution (DMR) measured after 60 mins by G-protein coupling DMR assay
[24] = biological target: T3, Relaxin receptor 1; experiment: Agonist activity at human RXFP1 expressed in CHO-K1 cells assessed as dynamic mass redistribution (DMR) measured after 60 mins pretreated with PTX by G-protein coupling DMR assay
[25] = biological target: T3, Relaxin receptor 1; experiment: Agonist activity at human RXFP1 expressed in CHO-K1 cells assessed as dynamic mass redistribution (DMR) measured after 60 mins pretreated with UBO-QIC by G-protein coupling DMR assay
[26] = biological target: T3, Relaxin receptor 1; experiment: Agonist activity at human RXFP1 expressed in HEK293 cells co-expressing G-alphas assessed as cAMP production measured after 15 mins by BRET sensor assay
[27] = biological target: T3, Relaxin receptor 1; experiment: Agonist activity at human RXFP1 expressed in HEK293 cells co-expressing G-alphaz assessed as cAMP production measured after 15 mins by BRET sensor assay
[28] = biological target: T3, Relaxin receptor 1; experiment: Agonist activity at human RXFP1 expressed in HEK293 cells assessed as cAMP production measured after 15 mins by BRET sensor assay
[29] = biological target: T3, Relaxin receptor 1; experiment: Agonist activity at human RXFP1 expressed in HEK293 cells coexpressing GRK2 assessed as beta-arrestin internalization by BRET assay relative to control

COc1cc(C#N)c(O[C@H]2CC[C@@](C)(C(=O)O)CC2)cc1C(=O)N[C@@H]1[C@H]2CC[C@H](C2)[C@@H]1C(=O)NC12CC(F)(C1)C2
logD [1]: 2.2
fraction unbound at 18 h, 5 µM [2]: 0.101
hepatocyte CLint at 1 µM [3]: 1.5 µL/min/1e6 cells
CL free [4]: 2.6 µL/min
microsomal CLint at 1 µM [5]: 4 µL/min/mg
CL free [6]: 4.7 µL/min/mg
EC50 [7]: 10500 nM
CL free [8]: 11 µL/min
Vd [9]: 0.96 L/kg
clearance [10]: 59 mL/min/kg
half-life [11]: 1.4 h
bioavailability [12]: 17%

COc1cc(C#N)c(O[C@H]2CC[C@@](C)(C(=O)O)CC2)cc1C(=O)N[C@@H]1[C@H]2CC[C@H](C2)[C@@H]1C(=O)NCC(C)(C)C
logD [1]: 2.3
fraction unbound at 18 h, 5 µM [2]: 0.078
hepatocyte CLint at 1 µM [3]: < 1.3 µL/min/1e6 cells
CL free [4]: < 2 µL/min
microsomal CLint at 1 µM [5]: < 3 µL/min/mg
CL free [6]: < 4.3 µL/min/mg
EC50 [7]: 15800 nM
CL free [8]: 15 µL/min
Vd [13]: 0.55 L/kg
clearance [14]: 41 mL/min/kg
half-life [15]: 2 h
bioavailability [16]: 61%
EC50 [17]: 1260 nM

COc1cc(F)c(O[C@H]2CC[C@@](C)(C(=O)O)CC2)cc1C(=O)N[C@@H]1[C@H]2CC[C@H](C2)[C@@H]1C(=O)NCC(C)(C)C
logD [1]: 3
hepatocyte CLint at 1 µM [3]: 2.7 µL/min/1e6 cells
CL free [4]: 4.3 µL/min
microsomal CLint at 1 µM [5]: 14 µL/min/mg
CL free [6]: 20 µL/min/mg
Papp A→B [18]: 81 ×10⁻⁶ cm/s
efflux ratio [19]: 6.8
EC50 [20]: 39.8 nM

COc1cc(F)c(O[C@H]2CC[C@@](C)(C(=O)O)CC2)cc1C(=O)N[C@@H]1[C@H]2CC[C@H](C2)[C@@H]1C(=O)Nc1ccc(F)c(S(F)(F)(F)(F)F)c1
logD [1]: 4.9
fraction unbound at 18 h, 5 µM [21]: < 0.0023
hepatocyte CLint at 1 µM [3]: 21 µL/min/1e6 cells
CL free [4]: 2.1 10^3uL/min
microsomal CLint at 1 µM [5]: 61 µL/min/mg
CL free [6]: 3.39 10^3uL/min/mg
EC50 [22]: 3.16 nM
EC50 [23]: 0.0251 nM
EC50 [24]: 0.02 nM
EC50 [25]: 0.0251 nM
EC50 [26]: 0.316 nM
EC50 [27]: 2.51 nM
EC50 [28]: 0.0316 nM
EC50 [29]: 1.51 nM
